Measurements as given in patent US5607926A, “Cephalosporin antibiotics” (Microcide Pharmaceuticals, Inc., priority 1995, dated 1997).
In brackets after ≈: the same amount, converted by molar mass. Where a name gives a salt, the structure may show the parent alone. Read-outs that look alike come from different tables or passages of the source.

Tests used:
Assay type in all cases: cell-based
[1] = system: S. aureus 76 (Meth^R)(lac^+); assay: In vitro antibacterial evaluation, MIC by agar dilution, S. aureus 76; settings: Staphylococcus aureus, read-out: MIC
Experimental: (§1) The compounds of the invention were evaluated against several β-lactamresistant bacteria strains by determining the minimum inhibitory concentration (MIC, μg/ml) of each compound with respect to each strain. The MIC, the lowest concentration of antibiotic which inhibits growth of the test organism, was determined by the agar dilution method.
(§2) To determine the MIC for bacterial isolates, the test compound was incorporated in a series of two-fold dilutions into liquified Mueller-Hinton agar. Upon solidification, a number of different bacterial strains were spot inoculated with a replicating device onto the agar surface. […] The procedures used in these studies have been standardized by the National Committee for Clinical Laboratory Standards (NCCLS), as per the NCCLS publication entitled METHODS FOR DILUTION ANTIMICROBIAL SUSCEPTIBILITY TESTS (1991), which is incorporated herein by reference.
(§3) Aliquots of antimicrobial agents were prepared in phosphate buffered saline (PBS) at pH 7.2. Tween 20 or DMSO was used as a solubilizing vehicle as needed. Standard methods of vortexing, sonicating and gentle heat were used to facilitate solubilizing the test agent. Typically, the concentration of the stock solution was 10× that of the highest drug concentration tested. A 1.28 mg/mL stock solution was used with a subsequent highest working concentration of 128 μg/mL. Serial two-fold dilutions were done through ≤0.25 μg/mL. Each drug level was tested in duplicate. Two-fold drug dilutions were done in sterile 50 mL tubes with a final drug volume of 5 mL. Upon the addition of 45 mL of molten agar, a 10-fold dilution resulted. Two, 25 mL. plates were then poured into 15×150 mm square Petri plates with grids and allowed to harden.
(§4) A control plate with a reference drug, either cefotaxime, vancomycin or imipenem, was used as the positive growth control. Stock concentrations of reference antibiotics were prepared and frozen at -80° C. Upon preparation, the control plates were sealed and stored in the refrigerator for up to 1 week prior to use; however, imipenem control plates had to be prepared just prior to use. All test plates were used within 24 hours of preparation.
(§5) Satisfactory results were obtained where the inoculum contained about 10^4 colony forming units (cfu) ±0.5 logs. Starting with pure cultures of the test isolates on agar plates, a few isolated colonies were transferred to a tube of nutrient broth and allowed to grow 4-6 hours at 35°-36° C. to reach log-phase growth. Dropwise addition of the broth culture to PBS was done to match a 0.5 McFarland turbidity standard equal to 10^8 cfu/mL. This was further diluted ten-fold in PBS to reach a working inoculum concentration of 10^7 cfu/mL. When 1 μL of the working inoculum was applied to the agar surface a concentration of about 10^4 cfu per spot was obtained.
(§6) Disposable sterile 1 μL loops were used to inoculate test plates, with each isolate in a designated grid on the agar plate. An alternate method of inoculation involved the use of a replica plater, a device with 48 steel pins allowing the simultaneous inoculation of multiple isolates. After the spots had dried, the plates were incubated at 35°-36° C. for 16-20 hours. Endpoints were assessed as the minimum inhibitory concentration (MIC) of antimicrobial agent.

[2] = system: E. faecium ATCC 35667; assay: In vitro antibacterial evaluation, MIC by agar dilution, E. faecium ATCC 35667; settings: Enterococcus faecium, ATCC35667, read-out: MIC
Experimental: as §1, §2, §3, §4, §5, §6

[3] = system: S. epidermidis ATCC 31432; assay: In vitro antibacterial evaluation, MIC by agar dilution, S. epidermidis ATCC 31432; settings: Staphylococcus epidermidis, ATCC31432
Experimental: as §1, §2, §3, §4, §5, §6

[4] = system: S. haemolyticus (Meth^R); assay: In vitro antibacterial evaluation, MIC by agar dilution, S. haemolyticus; settings: Staphylococcus haemolyticus, read-out: MIC
Experimental: as §1, §2, §3, §4, §5, §6

[5] = system: E. coli ATCC 25922; assay: In vitro antibacterial evaluation, MIC by agar dilution, E. coli ATCC 25922; settings: Escherichia coli, ATCC25922, read-out: MIC
Experimental: as §1, §2, §3, §4, §5, §6

[6] = system: S. aureus ATCC 29213; assay: In vitro antibacterial evaluation, MIC by agar dilution, S. aureus ATCC 29213; settings: Staphylococcus aureus, ATCC29213
Experimental: as §1, §2, §3, §4, §5, §6

[7] = system: S. aureus Col8A (Meth^S)(lac^-); assay: In vitro antibacterial evaluation, MIC by agar dilution, S. aureus Col8A; settings: Staphylococcus aureus
Experimental: as §1, §2, §3, §4, §5, §6
The novel agents of this invention are notable for their enhanced activity against S. aureus Col and Enterococci (E. faecium and E. faecalis). The S. aureus Col strain is a high-level PBP2a producer, whereas S. aureus Col 8A, its isogenic partner, lacks PBP2a. […] Thus, the compounds of the present invention are effective against PBP2a-producing bacteria.

[8] = system: P. aeruginosa ATCC 27853; assay: In vitro antibacterial evaluation, MIC by agar dilution, P. aeruginosa ATCC 27853; settings: Pseudomonas aeruginosa, ATCC27853, read-out: MIC
Experimental: as §1, §2, §3, §4, §5, §6

[9] = system: E. faecalis ATCC 29212; assay: In vitro antibacterial evaluation, MIC by agar dilution, E. faecalis ATCC 29212; settings: Enterococcus faecalis, ATCC29212; E. faecalis ATCC 29212; read-out: MIC
Experimental: as §1, §2, §3, §4, §5, §6

[10] = S. aureus ATCC 29213, read-out: MIC

MIC ([3]; S. epidermidis ATCC 31432, read-out: MIC) [µg/mL] | Compound | MIC [1] [µg/mL] | MIC [2] [µg/mL] | MIC [4] [µg/mL] | MIC [5] [µg/mL] | MIC [3] [µg/mL] | MIC [6] [µg/mL] | MIC [7] [µg/mL] | MIC [8] [µg/mL] | MIC [9] [µg/mL] | MIC [6, 10] [µg/mL]
< 0.5 | O=C(Cc1ccccc1)N[C@@H]1C(=O)N2C(C(=O)O)=C(Sc3cc(Cl)ccc3Cl)CS[C@H]12 [Cmpd 16, (7R)-7-[(Phenylacetyl)amino]-3-(2,5-dichlorophenylthio)-3-cephem-4-carboxylic acid] | 4 (≈ 8.07 µM) | 4 (≈ 8.07 µM) | 16 (≈ 32.3 µM) | > 16 |  |  |  |  |  | 
 | O=C(Cc1ccccc1)N[C@@H]1C(=O)N2C(C(=O)O)=C(Sc3ccc(Cl)c(Cl)c3)CS[C@H]12 [Cmpd 18, (7R)-7-[(Phenylacetyl)amino]-3-(3,4-dichlorophenylthio)-3-cephem-4-carboxylic acid] | 16 (≈ 32.3 µM) | 4 (≈ 8.07 µM) | 32 (≈ 64.6 µM) | > 32 | < 0.25 | < 0.25 | < 0.25 |  |  | 
 | COC(=O)c1ccccc1SC1=C(C(=O)O)N2C(=O)[C@@H](NC(=O)Cc3ccccc3)[C@H]2SC1 [Cmpd 19, (7R)-7-[(Phenylacetyl)amino]-3-(o-carbomethoxyphenylthio)-3-cephem-4-carboxylic acid] | 16 (≈ 33 µM) | 2 (≈ 4.13 µM) | 32 (≈ 66 µM) | > 32 | < 0.25 | < 0.25 | < 0.25 |  |  | 
 | O=C(Cc1cccs1)N[C@@H]1C(=O)N2C(C(=O)O)=C(Sc3ccccc3Br)CS[C@H]12 [Cmpd 20, (7R)-7-[(2-Thienylacetyl)amino]-3-(o-bromophenylthio)-3-cephem-4-carboxylic acid] | 4 (≈ 7.82 µM) | 2 (≈ 3.91 µM) | 8 (≈ 15.6 µM) | > 32 | < 0.25 | < 0.25 | < 0.25 |  |  | 
 | N=C(N)SCc1ccccc1SC1=C(C(=O)O)N2C(=O)[C@@H](NC(=O)Cc3ccc(CN)cc3)[C@H]2SC1 [Cmpd 124, (7R)-7-[((4-aminomethylphenyl)acetyl)amino]-3-(2-isothiouroniummethylphenylthio)-3-cephem-4-carboxylate, trifluoroacetic acid salt] | 16 | 1 | 16 | > 32 |  | 0.25 | 0.25 | > 32 | 1 | 
 | O=C(Cc1ccccc1)N[C@@H]1C(=O)N2C(C(=O)O)=C(Sc3ccccc3-n3cccn3)CS[C@H]12 [Cmpd 132, (7R)-7-[(Phenylacetyl)amino]-3-(2-(pyrazol-1-yl)phenylthio)-3-cephem-4-carboxylic acid] | 32 (≈ 65 µM) | 4 (≈ 8.12 µM) | > 32 | > 32 |  |  | 0.25 (≈ 0.508 µM) | > 32 | 4 (≈ 8.12 µM) | 0.125 (≈ 0.254 µM)
 | CSCC(=O)N[C@@H]1C(=O)N2C(C(=O)O)=C(Sc3ccccc3CSC(=N)NN)CS[C@H]12 [Cmpd 133, (7R)-7-[(methylthioacetyl)amino]-3-(2-(N-amino)isothiouroniummethylphenylthio)-3-cephem-4-carboxylate, inner salt] | 8 | 1 | 16 | > 32 |  | 0.125 | 0.125 | > 32 | 1 | 
 | N=C(N)SCc1ccccc1SC1=C(C(=O)O)N2C(=O)[C@@H](NC(=O)CSCCCI)[C@H]2SC1 [Cmpd 134, (7R)-7-[(3-iodoprop-1-ylthioacetyl)amino]-3-(2-isothiouroniummethylphenylthio)-3-cephem-4-carboxylate, inner salt] | 8 | 1 | 16 | > 32 |  | 0.125 | 0.125 | > 32 | 0.5 | 
 | CSCC(=O)N[C@@H]1C(=O)N2C(C(=O)O)=C(Sc3ccccc3CNC(=N)N)CS[C@H]12 [Cmpd 135, (7R)-7-[(Methylthioacetyl)amino]-3-(2-guanidiniummethylphenylthio)-3-cephem-4-carboxylate, inner salt] | 16 | 2 to 4 | 32 | > 32 |  |  | ≤ 0.06 | > 32 | 2 to 4 | 0.125
